From PMC9612231, “Antileishmanial Anthracene Endoperoxides: Efficacy In Vitro, Mechanisms and Structure-Activity Relationships” (Molecules, 2022)
Read-outs that look alike come from different tables or passages of the source.

Experiments:
[1] = test system: Leishmania tarentolae promastigotes (LtP); assay: Resazurin viability assay for LtP; format: cell-based; details: for IC50: Leishmania tarentolae, read-out: LtP IC50; for Selectivity IC50,J774/IC50,LtP: ratio of IC50 in J774 macrophages to IC50 in LtP; for IC50,non-EP/IC50,EP: ratio of IC50 of non-EP in LtP versus IC50 of respective EP
Procedure: (§1) The influence of AcEP and their analogs (Ac) on the viability of cells was tested in Leishmania tarentolae promastigotes (LtP) and J774 macrophages (Table 2). Based on the changes of viability of the respective cell lines at different compound concentrations, IC50 values were calculated. In Table 2, the IC50 values in both cell lines were compared for the individual compounds. From the ratio of IC50 values in J774 macrophages to IC50 values in LtP, an in vitro selectivity was calculated.
LtP (strain P10 from Jena Bioscience, Jena, Germany) were cultivated according to manufacturer instructions up to passage 50 in brain heart infusion medium (37 g/L, pH 7.4) and supplemented with 5 mg/L hemin and 25,000 IU/L penicillin and 25 mg/L streptomycin in 50 mL TubeSpin bioreactors (TPP, Trasadingen. Switzerland). LtP were grown at 27 °C in an incubator (Ehret, Emmendingen, Germany) and agitated at a frequency of 0.05 s^−1. […] For experiments, LtP were used one day after passage. The cell number was calculated by measuring the optical density (OD) of the culture at 600 nm with a U-1100 photometer (Hitachi Ltd., Tokyo, Japan) and applying the formula × 10^6 cells/mL = OD600nm × 0.969 × 124 × dilution factor [53].
Assay medium of YEM (20.7 g/L yeast extract powder, 1.2 g/L K2HPO4, 0.2 g/L KH2PO4, 2.9 g/L glucose, pH 7.4) and PBS (1:1, v/v), 25,000 U/L penicillin, 25 mg/L streptomycin, and 7.7 µM hemin was prepared. Aliquots of 200 µL of this medium and 2 × 10^6 LtP/mL (where required) were distributed in non-treated cell culture 96-well plates. Compounds (dissolved in DMSO) were added with starting concentrations of 25 µM (Pen) or 200 µM (AcEP/Ac), and then, serial dilutions were carried out resulting in a set of concentrations (25, 5, 1, 0.2, 0.04, and 0.008 µM) or (200, 40, 8, 1.6, 0.32, and 0.064 µM). For each compound concentration, at least triplicates on each plate were performed. After incubation of the plates at 27 °C for 48 h, 50 µL of resazurin solution (final concentration in wells 20 µM) was added to each well and after 4 h of incubation, the fluorescence was measured at 560 nm excitation and 590 nm emission using a plate reader (Perkin Elmer EnSpire, Rodgau, Germany) (adapted from). Combination assays for viability in the presence of PIH and NAC were performed the same way. […] All tests were repeated at least on four different weeks of cultivation.
(§2) Calculations were carried out using Microsoft Excel 2016 (Microsoft). The graphs were created using Origin 6.1 (OriginLab Corporation, Northampton, MA, USA). For all groups of experimental data, mean and standard deviation (SD) were calculated. Statistically significant differences between groups of sample data were identified by unpaired two-tailed Student’s t-test. Differences on the level of p < 0.05 were considered significant. The number of replicates is indicated at the respective figures/tables. The half-maximal inhibitory concentrations (IC50) were determined from non-linear concentration-response curves using a four-parameter logistic model and expressed as the mean ± SD.

J774 macrophages = assay: Resazurin viability assay for J774 macrophages; format: cell-based, murine; details: Mus musculus, J774, 48 h, read-out: J774 IC50
Procedure: as §1
The murine macrophage cell line J774A.1 (ATCC, TIB-67™, Wesel, Germany) was cultivated up to passage 30 in DMEM (high glucose, 3.7 g/L NaHCO3, pH 7.4) with 25,000 IU/L penicillin, 25 mg/L streptomycin, and 10% FCS (heat-inactivated) in 50 mL TubeSpin bioreactors. J774 cells were incubated at 37 °C and 5% CO2 on a roller culture apparatus (5 rpm) in a Heraeus Cytoperm 8080 incubator (Thermo Electron Corp., Vienna, Austria). To determine the cell count, the cell suspension was re-suspended and diluted 1:2 with phosphate-buffered saline (PBS): 137 mM NaCl, 1.4 mM KH2PO4, 4.3 mM Na2HPO4, and 2.7 mM KCl, pH 7.4. After fixation of the cells by mixing the cell suspension 1:1 with a formaldehyde solution (2%, v/v), aliquots of the resulting suspension were transferred into a standard Neubauer chamber (VWR, Austria) and counted manually using a light microscope (Motic BA310, Vienna, Austria) at a magnification of 40 times. J774 cells were passaged twice a week in a ratio of 1:10.
DMEM containing 25,000 U/L penicillin, 25 mg/L streptomycin, 10% FCS, and 1 × 10^5 J774/mL was prepared. This mixture (200 µL) was distributed in cell culture-treated 96-well plates, except the control wells which contained only DMEM. The cells were incubated for 24 h at 37 °C and 5% CO2 to allow attachment. Afterwards the medium and non-adherent cells were removed by washing with PBS, and then, 200 µL DMEM was added to attached cells. Compounds dissolved in DMSO were added in starting concentrations of 25 µM (Pen) or 200 µM (AcEP/Ac), and then, serial dilutions were carried out resulting in the same concentration steps as listed for LtP. For each compound concentration triplicates on each plate were performed. […], 50 µL of resazurin solution (final concentration 20 µM) was added, and after 4 h of incubation, the fluorescence was measured at 560 nm excitation and 590 nm emission using a plate reader (Perkin Elmer EnSpire, Rodgau, Germany). All tests were repeated at least on four different weeks of cultivation.
as §2

[2] = resazurin viability, endpoint 48 h, 2 × 10^6 LtP/mL, mean ± SD of 4–8 experiments
[3] = resazurin viability, endpoint 48 h, 10^5 J774 cells/mL, mean ± SD of 4–8 experiments

IC50 [1, 2] [µM] | Selectivity IC50,J774/IC50,LtP [1] | IC50,non-EP/IC50,EP [1] | Compound | IC50 (J774 macrophages; [3]) [µM] | Activity against LtP, in words ([1]; viability assay) | IC50 ([1]; 48 h) [µM] | IC50 (J774 macrophages) [µM]
62 ± 34.2 | >3.2 | – | C[n+]1ccc(C23OOC(c4cc[n+](C)cc4)(c4ccccc42)c2ccccc23)cc1 [Compound 1062MeAcEP] | > 200 | – | – | –
9.67 ± 2.15 | 20 | 20.3 | c1ccc(C23OOC(c4ccccc4)(c4ccccc42)c2ccccc23)cc1 [DPAcEP] | 197 ± 35 | rather active | – | –
0.7 ± 0.31 | 35 | 0.77 | CC(C)(C)c1ccc2c(c1)C1(c3cccnc3)OOC2(c2cccnc2)c2ccccc21 (centres unmarked) [mPyBuAcEP] | 24.6 ± 7.3 | – | – | –
40.7 ± 12.3 | >4.9 | 1.79 | COc1ccccc1C12OOC(c3ccccc3OC)(c3ccccc31)c1ccccc12 [oOMeAcEP] | > 200 | – | – | –
1.84 ± 0.13 | 1.2 | 18.7 | c1ccc(C23OOC(c4ccccn4)(c4ccccc42)c2ccccc23)nc1 [oPyAcEP] | 2.24 ± 0.08 | – | – | –

Compound | IC50 [1, 2] [µM] | Selectivity IC50,J774/IC50,LtP [1] | IC50,non-EP/IC50,EP [1] | IC50 (J774 macrophages; [3]) [µM] | Activity against LtP, in words ([1]; viability assay) | IC50 ([1]; 48 h) [µM] | IC50 (J774 macrophages) [µM]
CC(C)(C)c1ccc2c(-c3cccnc3)c3ccccc3c(-c3cccnc3)c2c1 [mPyBuAc] | – | 139 | – | – | – | 0.54 ± 0.09 | 74.2 ± 45.9
